# Results taken from the OligoGym collection.
# Oligonucleotides are written 5' to 3', each unit as a sugar letter and its base; * is a phosphorothioate linkage, no mark a phosphodiester; rarer units and linkages stand in square brackets, end groups in braces. Plain capitals give the bases only. d = 2'-deoxy (DNA); r = 2'-OH (RNA)
# Molecular target: UBE2L6
# Test: reporter assay of Huesken 2005
# Details: siRNA
# Further: test concentration or dose not given here.
row,Substance,normalised inhibition (eCFP-eYFP dual reporter) [%]
1,sense rCrCrUrGrCrGrGrArUrGrGrArCrCrUrCrGrCrUdTdT / antisense rArGrCrGrArGrGrUrCrCrArUrCrCrGrCrArGrGdGdG,81.8
2,sense rCrCrUrGrUrCrCrArGrCrGrArUrGrArUrGrCrCdTdT / antisense rGrGrCrArUrCrArUrCrGrCrUrGrGrArCrArGrGdTdT,77.6
3,sense rCrGrArUrGrArUrGrCrCrArArUrGrUrCrCrUrGdTdT / antisense rCrArGrGrArCrArUrUrGrGrCrArUrCrArUrCrGdCdT,97.1
4,sense rCrGrCrUrCrUrCrCrUrCrCrUrArCrCrCrGrArCdTdT / antisense rGrUrCrGrGrGrUrArGrGrArGrGrArGrArGrCrGdTdG,73.7
5,sense rCrGrGrArUrGrGrArCrCrUrCrGrCrUrGrArCrCdTdT / antisense rGrGrUrCrArGrCrGrArGrGrUrCrCrArUrCrCrGdCdA,71.6
6,sense rCrUrCrCrUrArCrCrCrGrArCrCrArArCrCrUrCdTdT / antisense rGrArGrGrUrUrGrGrUrCrGrGrGrUrArGrGrArGdGdA,63.5
7,sense rCrUrGrArCrArCrArGrArArUrCrCrGrGrArGrCdTdT / antisense rGrCrUrCrCrGrGrArUrUrCrUrGrUrGrUrCrArGdCdA,79.6
8,sense rCrUrGrCrGrGrArArCrCrUrGrUrCrCrArGrCrGdTdT / antisense rCrGrCrUrGrGrArCrArGrGrUrUrCrCrGrCrArGdGdT,76.1
9,sense rCrUrGrGrArGrGrCrCrCrUrCrArArUrGrUrGrCdTdT / antisense rGrCrArCrArUrUrGrArGrGrGrCrCrUrCrCrArGdGdA,48.2
10,sense rCrUrUrCrCrCrGrCrCrGrGrArGrUrArUrCrCrGdTdT / antisense rCrGrGrArUrArCrUrCrCrGrGrCrGrGrGrArArGdCdT,38.1
11,sense rCrUrUrGrCrArCrCrArArGrArCrUrUrGrCrCrAdTdT / antisense rUrGrGrCrArArGrUrCrUrUrGrGrUrGrCrArArGdGdC,89.6
12,sense rGrArGrCrCrCrCrUrGrCrGrGrArUrGrGrArCrCdTdT / antisense rGrGrUrCrCrArUrCrCrGrCrArGrGrGrGrCrUrCdCdC,55.9
13,sense rGrArUrUrUrGrCrCrUrGrCrCrCrArUrCrArUrCdTdT / antisense rGrArUrGrArUrGrGrGrCrArGrGrCrArArArUrCdTdG,71.3
14,sense rGrCrGrArUrGrArUrGrCrCrArArUrGrUrCrCrUdTdT / antisense rArGrGrArCrArUrUrGrGrCrArUrCrArUrCrGrCdTdG,107
15,sense rGrGrArGrCrUrGrUrUrCrArGrArArArGrArArUdTdT / antisense rArUrUrCrUrUrUrCrUrGrArArCrArGrCrUrCrCdGdG,108
16,sense rGrGrArGrUrArUrCrCrGrUrUrCrArArGrCrCrUdTdT / antisense rArGrGrCrUrUrGrArArCrGrGrArUrArCrUrCrCdGdG,84.6
17,sense rGrGrArUrGrGrArCrCrUrCrGrCrUrGrArCrCrUdTdT / antisense rArGrGrUrCrArGrCrGrArGrGrUrCrCrArUrCrCdGdC,80.5
18,sense rGrGrCrArCrGrCrUrCrUrCrCrUrCrCrUrArCrCdTdT / antisense rGrGrUrArGrGrArGrGrArGrArGrCrGrUrGrCrCdAdC,62.5
19,sense rGrUrCrCrUrGrGrUrGrUrGrGrCrArCrGrCrUrCdTdT / antisense rGrArGrCrGrUrGrCrCrArCrArCrCrArGrGrArCdAdT,74.2

row,Substance,normalised inhibition (eCFP-eYFP dual reporter) [%]
1,sense rGrUrGrArArUrArGrArCrCrGrArArUrArUrCrAdTdT / antisense rUrGrArUrArUrUrCrGrGrUrCrUrArUrUrCrArCdCdA,89.9
2,sense rGrUrGrGrCrArCrGrCrUrCrUrCrCrUrCrCrUrAdTdT / antisense rUrArGrGrArGrGrArGrArGrCrGrUrGrCrCrArCdAdC,96.9
3,sense rGrUrUrCrArCrCrCrUrCrCrGrArUrUrCrGrGrAdTdT / antisense rUrCrCrGrArArUrCrGrGrArGrGrGrUrGrArArCdTdC,61.1
4,sense rUrArCrCrArCrCrCrCrArArCrGrUrGrGrArCrGdTdT / antisense rCrGrUrCrCrArCrGrUrUrGrGrGrGrUrGrGrUrAdGdA,37.4
5,sense rUrCrArArGrCrCrUrCrCrCrArUrGrArUrCrArAdTdT / antisense rUrUrGrArUrCrArUrGrGrGrArGrGrCrUrUrGrAdAdC,86.7
6,sense rUrCrArArUrGrUrGrCrUrGrGrUrGrArArUrArGdTdT / antisense rCrUrArUrUrCrArCrCrArGrCrArCrArUrUrGrAdGdG,69.1
7,sense rUrCrArUrCrArGrCrArGrUrGrArGrArArCrUrGdTdT / antisense rCrArGrUrUrCrUrCrArCrUrGrCrUrGrArUrGrAdTdG,61.3
8,sense rUrCrCrUrCrCrUrArCrCrCrGrArCrCrArArCrCdTdT / antisense rGrGrUrUrGrGrUrCrGrGrGrUrArGrGrArGrGrAdGdA,49.5
9,sense rUrCrCrUrGrGrArGrGrCrCrCrUrCrArArUrGrUdTdT / antisense rArCrArUrUrGrArGrGrGrCrCrUrCrCrArGrGrAdCdT,74.2
10,sense rUrCrUrArCrCrArCrCrCrCrArArCrGrUrGrGrAdTdT / antisense rUrCrCrArCrGrUrUrGrGrGrGrUrGrGrUrArGrAdTdC,53
11,sense rUrCrUrCrCrUrCrCrUrArCrCrCrGrArCrCrArAdTdT / antisense rUrUrGrGrUrCrGrGrGrUrArGrGrArGrGrArGrAdGdC,79.9
12,sense rUrGrArCrArCrArGrArArUrCrCrGrGrArGrCrUdTdT / antisense rArGrCrUrCrCrGrGrArUrUrCrUrGrUrGrUrCrAdGdC,54.8
13,sense rUrGrCrCrGrArArGrArGrUrUrCrArCrCrCrUrCdTdT / antisense rGrArGrGrGrUrGrArArCrUrCrUrUrCrGrGrCrAdTdT,59.9
14,sense rUrGrGrArArGrCrCrUrUrGrCrArCrCrArArGrAdTdT / antisense rUrCrUrUrGrGrUrGrCrArArGrGrCrUrUrCrCrAdGdT,77.7
15,sense rUrGrGrUrGrUrGrGrCrArCrGrCrUrCrUrCrCrUdTdT / antisense rArGrGrArGrArGrCrGrUrGrCrCrArCrArCrCrAdGdG,89.5
16,sense rUrGrUrGrCrUrGrGrUrGrArArUrArGrArCrCrGdTdT / antisense rCrGrGrUrCrUrArUrUrCrArCrCrArGrCrArCrAdTdT,59
17,sense rUrUrCrArArGrCrCrUrCrCrCrArUrGrArUrCrAdTdT / antisense rUrGrArUrCrArUrGrGrGrArGrGrCrUrUrGrArAdCdG,71.2
18,sense rUrUrCrArGrArArArGrArArUrGrCrCrGrArArGdTdT / antisense rCrUrUrCrGrGrCrArUrUrCrUrUrUrCrUrGrArAdCdA,57.7
